Measured values reported in US20250019398A1, “NONAMERIC PEPTIDE HAVING EXCELLENT ANTIBACTERIAL ACTIVITY AGAINST GRAM-NEGATIVE BACTERIA AND ENANTIOMER THEREOF” (priority 2021, published 2025).
≈ marks a conversion by molar mass, not a printed value. Entries after “also recorded” stand apart in the source; their conditions may differ. Read-outs that look alike come from different tables or passages of the source. Square brackets hold non-standard residues; d marks the D form. Ends that are not written are not given here. Peptide text beside a SMILES is read from it.

How the values were obtained:
[1] = system: CRAB 12005 (carbapenem-resistant A. baumanii CCARM); test: MIC, broth dilution; format: cell-based, A. baumannii; conditions: 16 hours, read-out: Minimal inhibitory concentration (MIC), CRAB 12005
Text: (§1) Among the bacterial strains used in the experiment, Escherichia coli KCTC 1682 was obtained from the Korean Collection for Type Cultures (KCTC) (Jeongeup, Korea), Acinetobacter baumannii KCCM 40203 and Pseudomonas aeruginosa KCCM 11328 were obtained from the Korean Culture Center of Microorganisms (KCCM) (Seoul, Korea), and Klebsiella pneumonia NCCP 16054 was obtained from the National Culture Collection for Pathogens (NCCP) (Osong, Korea). In addition, carbapenem-resistant E. coli NCCP16044 and carbapenem-resistant Klebsiella pneumonia NCCP 15782 were obtained from the NCCP, and three types of carbapenem-resistant A. baumanii CCARM 12004-6 were obtained from the Culture Collection of Antimicrobial Resistance Microbes (CCARM) (Cheongju City, Korea). The E. coli K1 (ATCC700973) strain used in the animal experiments was obtained from the American Type Culture Collection (ATCC) ([…]).
(§2) The antimicrobial activities of the peptides were measured by a minimal inhibitory concentration (MIC) analysis. The MIC was determined using a broth dilution method. All bacterial strains were grown overnight at 37° C. in a Muller-Hinton (MH) medium.

[2] = system: CRAB 12004 (carbapenem-resistant A. baumanii CCARM); test: MIC, broth dilution; format: cell-based, A. baumannii; conditions: 16 hours, read-out: Minimal inhibitory concentration (MIC), CRAB 12004
Text: as §1, §2

[3] = system: CRAB 12006 (carbapenem-resistant A. baumanii CCARM); test: MIC, broth dilution; format: cell-based, A. baumannii; conditions: 16 hours, read-out: Minimal inhibitory concentration (MIC), CRAB 12006
Text: as §1, §2

[4] = system: carbapenem-resistant Klebsiella pneumonia NCCP 15782 (CRKP 15782); test: MIC, broth dilution; format: cell-based; conditions: 16 hours
Text: as §1, §2

[5] = system: Klebsiella pneumonia NCCP 16054; test: MIC, broth dilution; format: cell-based; conditions: standard Gram-negative bacteria, 16 hours
Text: as §1, §2

[6] = system: sheep red blood cells (sRBCs); test: Hemolysis of sheep red blood cells; format: cell-based; conditions: for Hemolysis of sRBCs: 100 μM, 1 h
Protocol: Peptide-induced toxicity was determined by hemolysis of sheep red blood cells (sRBCs). Fresh sRBCs were washed three times or more with phosphate buffered saline (PBS), and debris was removed by centrifugation (1000×g, 5 minutes, 4° C.). All the peptides including a melittin control (0.2 to 100 μM) and a positive control (1% (v/v) Triton X-100) were cultured with 4% (v/v) sRBCs at 37° C. for 1 h, and then centrifuged at 1000×g for 5 minutes. The supernatant was measured at 405 nm using a microplate reader.

[7] = system: carbapenem-resistant E. coli NCCP16044 (CREC 16044); test: microbe, parasite or virus in culture; format: cell-based; conditions: 16 hours, read-out: Minimal inhibitory concentration (MIC), CREC 16044
Text: as §1, §2

LPS (E. coli O111:B4) = test: BODIPY-TR cadaverine displacement assay (LPS binding); conditions: 4 μM, 30 minutes
Protocol: The binding ability of peptides to LPS was investigated by BODIPY-TR cadaverine (BC, Thermo Fisher Scientific, MA, USA) displacement assay (FIG. 2A). A probe complex was prepared by mixing 5 μg/mL BC and 5 μg/mL LPS (E. coli O111:B4, Sigma-Aldrich, St. Louis, MO, USA) in a 50 mM Tris buffer (pH 7.4) at room temperature for 6 hours. Peptides containing a polymyxin B (PMB) control (1 to 64 μM), which is known to have high LPS binding ability, were allowed to interact with the LPS-BC mixture in a black 96-well plate for 30 minutes. Relative fluorescence intensities were recorded using a fluorescence microplate reader (Molecular Devices, San Jose, USA) at an excitation wavelength of 580 nm and an emission wavelength of 620 nm.

[8] = system: Acinetobacter baumannii KCCM 40203; test: MIC, broth dilution; format: cell-based; conditions: standard Gram-negative bacteria, 16 hours
Text: as §1, §2

[9] = system: Pseudomonas aeruginosa KCCM 11328; test: MIC, broth dilution; format: cell-based; conditions: standard Gram-negative bacteria, 16 hours
Text: as §1, §2

[10] = system: RAW 264.7 mouse macrophages; test: WST-8 cytotoxicity; format: cell-based; conditions: 100 μM, 24 hours
Protocol: (§3) Additionally, for a cell-based toxicity assay, RAW 264.7 mouse macrophages and human kidney (HK)-2 cells were obtained from the Korean Cell Line Bank (Seoul, Korea), and cells were maintained in a DMEM culture medium (Thermo Fischer Scientific Inc., MA, USA) supplemented with 10% fetal bovine serum and 1% penicillin/streptomycin at 37° C. in a humidified 5% CO2 incubator. The cytotoxicity of the peptides was analyzed using a WST-8 cell proliferation assay (Biomax Co, Ltd, Seoul, South Korea), and the experiment was performed according to the kit protocol. Cells (1×10^4) were seeded in a 96-well plate, the peptide treatment (0 to 100 μM) were initiated at 80% confluency and then the cells were cultured for 24 hours. After culturing, a WST-8 reagent was added and the change in absorbance was read at 450 nm relative to the reagent blank, and values were expressed as percent cell survival.

[11] = system: human kidney (HK)-2 cells; test: WST-8 cytotoxicity; format: cell-based; conditions: 100 μM, 24 hours
Protocol: as §3

A. baumannii = format: cell-based; conditions: 37° C.; for MIC, A. baumannii + Trypsin: peptide pre-cultured with trypsin 6 hours; for MIC, A. baumannii + α-Chymotrypsin: peptide pre-cultured with α-chymotrypsin 6 hours
Protocol: (§4) Proteolysis of peptides in serum has limited clinical use due to decreased bioavailability and half-life. Therefore, the stability of all the peptides pre-exposed to trypsin and chymotrypsin proteases was investigated and the relative growth inhibition of E. coli and A. baumannii was determined (Table 3). […] Thereafter, 100 μL of a peptide-protease mixture was added to 100 μL of a bacterial suspension (E. coli, A. baumannii, 2×10^5 CFU/mL), and the resulting mixture was further cultured at 37°° C. for 16 hours. A bacterial suspension without a peptide and protease was employed as a negative control. An analysis was performed in triplicates through independent experiments, and the degree of bacterial growth was measured at 600 nm using a microplate reader.

E. coli = format: cell-based; conditions: 37° C.; for MIC, E. coli + Trypsin: peptide pre-cultured with trypsin 6 hours; for MIC, E. coli + α-Chymotrypsin: peptide pre-cultured with α-chymotrypsin 6 hours
Protocol: as §4

[12] = system: Escherichia coli KCTC 1682; test: MIC, broth dilution; format: cell-based; conditions: standard Gram-negative bacteria, 16 hours; read-out: Minimal inhibitory concentration (MIC), E. coli
Text: In addition, carbapenem-resistant E. coli NCCP16044 and carbapenem-resistant Klebsiella pneumonia NCCP 15782 were obtained from the NCCP, and three types of carbapenem-resistant A. baumanii CCARM 12004-6 were obtained from the Culture Collection of Antimicrobial Resistance Microbes (CCARM) (Cheongju City, Korea). The E. coli K1 (ATCC700973) strain used in the animal experiments was obtained from the American Type Culture Collection (ATCC) ([…]).
as §2

[13] = In vivo toxicity (serum AST, ALT, BUN); parameters: species or system ICR mice; conditions: 1 mg/kg and 5 mg/kg i.p., 24 hours
Protocol: For in vivo toxicity measurements, ICR mice (n=5 per group) were injected intraperitoneally (i.p.) with R-Pro9-3D (1 mg and 5 mg/kg/day in PBS), and serum levels of aspartate aminotransferase (AST) and alanine aminotransferase (ALT) in the liver and BUN (blood urea nitrogen) in the kidney were measured using a standard kit manufactured by ASAN PHARM. Co., LTD.

LPS = test: LAL chromogenic endotoxin assay (LPS neutralization); format: biochemical; conditions: LPS 2 ng/mL; peptide concentration of the values not stated (3.1-50 μM tested)
Protocol: Peptide-mediated LPS-neutralizing activity was determined using a Limulus amebocyte lysate (LAL) chromogenic endotoxin quantification kit (GenScript, New Jersey, USA). 3.1, 6.3, 10, 12.5, 25, and 50 μM of each peptide were allowed to react so as to interact with LPS (2 ng/mL) at 37° C. for 10 minutes. LL-37, which is known to have high LPS-neutralizing ability, was used as a control. After an LAL enzyme (10 μL) was added to the peptide-LPS complex and the resulting mixture was allowed to react for 10 minutes, a chromogenic substrate was added thereto. An endotoxin level was shown by measuring the absorbance at 545 nm in triplicate and expressed in endotoxin units (EUs) per milliliter.

[14] = sheep red blood cells, 200 μM used when no detectable hemolysis at 100 μM

Row | Compound | MIC [1] [µM] | MIC [2] [µM] | MIC [3] [µM] | Minimal inhibitory concentration (MIC), CRKP 15782 [4] [µM] | Minimal inhibitory concentration (MIC), K. pneumonia [5] [µM] | MIC [7] [µM] | Toxicity in RAW264.7 cells [10] | Toxicity in human kidney (HK)-2 cells [11] | other results
1 | CC[C@@H](C)[C@@H](NC(=O)[C@@H](C)NC(=O)[C@@H](CC(C)C)NC(=O)[C@@H](Cc1c[nH]c2ccccc12)NC(=O)[C@@H](CC(C)C)NC(=O)[C@H](N)CCCNC(=N)N)C(=O)N[C@H](Cc1c[nH]c2ccccc12)C(=O)N[C@H](CCCNC(=N)N)C(=O)N[C@H](CCCNC(=N)N)C(N)=O [Pro9-3D, rlwlaiwrr-NH2] (H-[dR][dL][dW][dL][dA][dI][dW][dR][dR]-NH2) | 8 (≈ 10.1 µg/mL) | 8 (≈ 10.1 µg/mL) | 8 (≈ 10.1 µg/mL) | 8 (≈ 10.1 µg/mL) | 8 (≈ 10.1 µg/mL) | 8 (≈ 10.1 µg/mL) | – | – | HC10 (peptide concentration that induces 10% hemolysis) ([6]; red cells of sheep): 200 µM
2 | polymyxin B [PMB] | – | – | – | – | – | – | – | – | BC displacement (LPS binding) (LPS (E. coli O111:B4)): 76.6%
3 | RRWIALWLR-NH2 [R-Pro9-3] | 16 | 32 | 16 | 16 | 32 | 16 | neither R-Pro9-3 nor Pro9-3 showed toxicity; also recorded: non-toxic | neither R-Pro9-3 nor Pro9-3 showed toxicity; also recorded: non-toxic | Minimal inhibitory concentration (MIC), A. baumannii [8]: 16 µM; Minimal inhibitory concentration (MIC), P. aeruginosa [9]: 64 µM; Hemolysis of sRBCs [6]: 3.4%; HC10 (peptide concentration that induces 10% hemolysis) [6, 14]: 200 µM; MIC, A. baumannii + Trypsin (A. baumannii): >64 µM; MIC, A. baumannii + α-Chymotrypsin (A. baumannii): >64 µM; MIC, E. coli + Trypsin (E. coli): >64 µM; MIC, E. coli + α-Chymotrypsin (E. coli): 64 µM; MIC [12]: 16 µM
4 | RLWLAIWRR-NH2 [Pro9-3] | 16 | 16 | 16 | 64 | 64 | 16 | neither R-Pro9-3 nor Pro9-3 showed toxicity; also recorded: non-toxic | neither R-Pro9-3 nor Pro9-3 showed toxicity; also recorded: non-toxic | HC10 (peptide concentration that induces 10% hemolysis) ([6]; red cells of sheep): 200 µM
5 | CC[C@@H](C)[C@@H](NC(=O)[C@@H](Cc1c[nH]c2ccccc12)NC(=O)[C@@H](CCCNC(=N)N)NC(=O)[C@H](N)CCCNC(=N)N)C(=O)N[C@H](C)C(=O)N[C@H](CC(C)C)C(=O)N[C@H](Cc1c[nH]c2ccccc12)C(=O)N[C@H](CC(C)C)C(=O)N[C@H](CCCNC(=N)N)C(N)=O [R-Pro9-3D, rrwialwlr-NH2] (H-[dR][dR][dW][dI][dA][dL][dW][dL][dR]-NH2) | 4 (≈ 5.07 µg/mL) | 4 (≈ 5.07 µg/mL) | 4 (≈ 5.07 µg/mL) | 8 (≈ 10.1 µg/mL) | 8 (≈ 10.1 µg/mL) | 4 (≈ 5.07 µg/mL) | 20.3% | 9.6% | Minimal inhibitory concentration (MIC), A. baumannii [8]: 4 µM (≈ 5.07 µg/mL); Minimal inhibitory concentration (MIC), P. aeruginosa [9]: 8 µM (≈ 10.1 µg/mL); Serum AST, ALT and BUN levels (in vivo toxicity) [13]: no clinically significant levels; also recorded: did not increase the above enzyme levels; Hemolysis of sRBCs [6]: 1.2%; HC10 (peptide concentration that induces 10% hemolysis) [6, 14]: 200 µM; MIC, A. baumannii + Trypsin (A. baumannii): 4 µM; MIC, A. baumannii + α-Chymotrypsin (A. baumannii): 4 µM; MIC, E. coli + Trypsin (E. coli): 8 µM; MIC, E. coli + α-Chymotrypsin (E. coli): 8 µM; MIC [12]: 8 µM (≈ 10.1 µg/mL)
6 | C[C@@H](O)[C@H]1C(=O)N2C(C(=O)O)=C(SCCN=CN)C[C@H]12 [Imipenem] | – | – | – | – | – | – | – | – | MIC ([1]; Acinetobacter baumannii): 64 µM (≈ 19.2 µg/mL); MIC ([2]; Acinetobacter baumannii): 64 µM (≈ 19.2 µg/mL); MIC ([3]; Acinetobacter baumannii): 64 µM (≈ 19.2 µg/mL); MIC ([7]; Escherichia coli): 8 µM (≈ 2.39 µg/mL)
7 | LL-37 | – | – | – | – | – | – | – | – | LPS neutralization (LPS): 76.5%
